Measurements taken from article PMC11287286 (Proceedings of the National Academy of Sciences of the …, 2024).

How the values were obtained:
CB2-M293^7.47T&S47^1.46T = CB2-M293^7.47T&S47^1.46T (Homo sapiens, UniProt P34972, M293T/S47T); assay: GloSensor cAMP assay, CB2 double mutant; type: cell-based
CB1^ECL2/CB2^other = assay: GloSensor cAMP assay, chimeric construct; type: cell-based, human; conditions: vs wild-type CB2
CB2^ECL2/CB1^other = assay: GloSensor cAMP assay, chimeric construct; type: cell-based, human; conditions: vs wild-type CB1
CB1 D176^2.63N = CB1 D176^2.63N (Homo sapiens, UniProt P21554, D176N)
Chain of CB1 D176^2.63N (P21554 whole entry D176N): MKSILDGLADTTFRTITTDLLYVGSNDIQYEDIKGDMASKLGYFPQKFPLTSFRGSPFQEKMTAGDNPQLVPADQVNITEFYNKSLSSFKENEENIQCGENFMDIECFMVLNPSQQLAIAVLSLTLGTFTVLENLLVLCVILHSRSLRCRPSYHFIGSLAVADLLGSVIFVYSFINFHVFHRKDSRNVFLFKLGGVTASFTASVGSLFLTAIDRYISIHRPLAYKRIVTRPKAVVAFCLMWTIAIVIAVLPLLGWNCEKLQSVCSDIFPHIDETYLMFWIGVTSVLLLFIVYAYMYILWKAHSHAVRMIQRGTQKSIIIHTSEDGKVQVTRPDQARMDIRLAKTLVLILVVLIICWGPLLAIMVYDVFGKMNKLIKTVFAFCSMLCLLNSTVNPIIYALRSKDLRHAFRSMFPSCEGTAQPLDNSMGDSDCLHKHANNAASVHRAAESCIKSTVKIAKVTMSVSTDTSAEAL

Chain of CB2-M293^7.47T&S47^1.46T (P34972 whole entry S47T/M293T): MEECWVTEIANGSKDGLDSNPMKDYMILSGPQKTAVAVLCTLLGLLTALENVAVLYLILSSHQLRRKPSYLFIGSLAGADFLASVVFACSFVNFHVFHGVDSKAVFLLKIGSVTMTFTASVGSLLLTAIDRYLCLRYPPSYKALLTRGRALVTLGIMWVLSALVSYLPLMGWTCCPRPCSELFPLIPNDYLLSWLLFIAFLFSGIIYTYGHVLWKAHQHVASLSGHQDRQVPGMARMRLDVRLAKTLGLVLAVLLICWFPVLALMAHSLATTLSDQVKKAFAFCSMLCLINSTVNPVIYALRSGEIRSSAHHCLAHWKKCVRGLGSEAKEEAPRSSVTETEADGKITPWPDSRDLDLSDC

Compound: CCCCCCC(C)(C)c1ccc([C@@H]2C[C@H](O)CC[C@H]2CCCO)c(O)c1 [CP55,940]
- activity vs wild-type CB2 (CB2-M293^7.47T&S47^1.46T): remained essentially unchanged
- effect of ECL2 replacement on EC50 (CB1^ECL2/CB2^other): no effect on the EC50
- activation of CB1 receptor containing the CB2 ECL2 loop (CB2^ECL2/CB1^other): same potency as wild-type CB1
- activity vs wild-type CB1 (CB1 D176^2.63N): significantly reduces the activity
